Measurements reported in paper PMC11305403, “Design, synthesis, and antiproliferative screening of new quinoline derivatives bearing a cis-vinyl triamide motif as apoptosis activators and EGFR-TK inhibitors” (RSC Advances, 2024).

Legend:
MCF-7 cell line = assay: MTT cytotoxic / antiproliferative activity against MCF-7 cell line; format: cell-based; details: for IC50: MTT assay, MCF-7 breast adenocarcinoma cells, 24 h treatment; for fold more potent antiproliferative activity than the reference STU: MCF-7, relative to STU IC50
Method: S4.2.1. Cytotoxic activity evaluation […]
adenocarcinoma (MCF-7) cell line. Cell viability assay was assessed using MTT assay […]
under 5% CO2. After incubation, the cells were treated with different concentrations of the test hybrid 5 and 6a-h and incubated for 24 h, then 20 µl of MTT solution at 5 […]
Dimethyl sulphoxide (DMSO) in […]
volume of 100 µl was added to each well to dissolve the purple formazan that had formed. The color intensity of the formazan product, which represents the growth […]
570 nm absorbance. The experimental conditions were carried out with at least three replicates, and the experiments were repeated at least three times. […]

MCF-7 cells [1] = assay: Annexin V-FITC/PI apoptosis assay by flow cytometry in MCF-7 cells; format: cell-based; details: 48 h
Method: Apoptosis play an important role in organogenesis and in crafting complex tissues during embryonic growth, and in the preservation of tissue homeostasis in adult organism.[44] Numerous clinical disorders, including cancer, autoimmune illness and infectious diseases, are characterised by the deregulation of apoptosis.[45] To ensure the ability of quinoline tethered [2-(4-methoxyphenyl)-cis-vinyl] triamide 6f to activate apoptosis, flow cytometric measurement was carried out using Annexin V which binds to phophatidylserine declared on the outer layed of apoptotic cells and appears fluorescent green and PI which stains DNA and penetrates only dead cells. […] Meanwhile, the proportion of late apoptotic cells rose from 0.21% to 16.65% compared to DMOS controls (Fig. 4). […]
S4.2.3. Apoptosis assay for compound 6f
Apoptosis in MCF-7 cells was investigated using fluorescent Annexin V-FITC/ PI detection kit (BioVision Annexin V-FITC Apoptosis Detection Kit, Catalog #: K101) by flow cytometry assay. MCF-7 cells at a density of 2 × 10^5 per well were treated with compound 6f at the IC50 (µM) for 48 h, then the cells were harvested and stained with Annexin V-FITC/ PI dye for 15 min in the dark at 37 °C. The samples were immediately analyzed using FACS Calibur flow cytometer (Becton and Dickinson, […]
S4.2.4. EGFR kinase Assay […]
according to manufacturer’s instructions using # BPS Bioscience EGFR Kinase Assay

MCF-7 cells [2] = assay: Mitochondrial membrane potential (MMP) by flow cytometry in MCF-7 cells; format: cell-based
Source text: A major part of apoptosis process is played by mitochondria.[46] Several active proteins such as cytochrome C and factor that induces apoptosis are two of the active proteins found in mitochondria.[47] The release of such proteins after inhibition of mitochondrial membrane potential (MMP) is crucial in the propagation of apoptosis.[48] […] This decrease in MMP was linked to an increase in Annexin V positive cells. […] According to this, quinoline tethered [2-(4-methoxyphenyl)-cis-vinyl] triamide 6f cause MCF-7 cells to become dysfunction in their mitochondria, which in turn trigger apoptotic cellular death. These outcomes were consistent with early findings that EGFR-TK inhibitors promote apoptosis via the mitochondrial route.

EGFR tyrosine kinase = biological target: T1, EGFR tyrosine kinase (Homo sapiens, UniProt P00533); assay: EGFR kinase assay (BPS Bioscience EGFR Kinase Assay Kit); format: biochemical; details: read-out: EGFR inhibitory activity IC50
T1 construct: purchased BPS Bioscience 40321
Source text: immediately analyzed using FACS Calibur flow cytometer (Becton and Dickinson,
S4.2.4. EGFR kinase Assay
(1 picture or pasted object on this page, not shown here)

MCF-7 cells [3] = assay: Cell cycle analysis by flow cytometry (PI staining) in MCF-7 cells; format: cell-based; details: MCF-7, 1.87 μM, 48 h
Source text: The cell cycle is related to a series of events responsible for cell division and duplication.[42] The cell cycle presents three distinct phases: G1, S and G2/M phase.[43] Due to the importance of the cell cycle in the process of tumor progression, we evaluated if the cell growth inhibition in MCF-7 occurred due to cell cycle arrest using FACS method. In the present study, flow cytometric measurement was utilized to investigate the effect of quinoline tethered [2-(4-methoxyphenyl)-cis-vinyl] triamide 6f on cellular cycle progression in tested breast cancer cells. In the test, MCF-7 cells were treated with quinoline tethered [2-(4-methoxyphenyl)-cis-vinyl] triamide 6f at a concentration of 1.87 μM, then incubated for 48 h. The cellular cycle distribution was analyzed to identify the definite phase at which quinoline tethered [2-(4-methoxyphenyl)-cis-vinyl] triamide 6f can arrest the cell cycle. […] It is observed that the percentage of cells at G1 phase was increased by 1.2-fold compared to controls (Fig. 3).
S4.2.1. Cytotoxic activity evaluation
To measure the cytotoxic actvity of the prepared derivatives 5 and 6a-h in breast adenocarcinoma (MCF-7) cell line. Cell viability assay was assessed using MTT assay method. Cells at density of 1 x 104 were seeded in a 96-well plate at 37 °C for 24 h under 5% CO2. After incubation, the cells were treated with different concentrations of the test hybrid 5 and 6a-h and incubated for 24 h, then 20 µl of MTT solution at 5 mg/mL was applied and incubated for 4 h at 37 °C. […] The color intensity of the formazan product, which represents the growth condition of the cells, is quantified by using an ELISA plate reader (EXL 800, USA) at 570 nm absorbance. […]
Cell cycle analysis in MCF-7 cells was investigated using fluorescent […] (BioVision EZCellTM Cell Cycle Analysis Kit Catalog #K920) by flow cytometry assay. […] The samples were immediately analyzed using Facs Calibur flow cytometer (Becton and Dickinson, Heidelberg, […]

T1 sequence (P00533 25-1210): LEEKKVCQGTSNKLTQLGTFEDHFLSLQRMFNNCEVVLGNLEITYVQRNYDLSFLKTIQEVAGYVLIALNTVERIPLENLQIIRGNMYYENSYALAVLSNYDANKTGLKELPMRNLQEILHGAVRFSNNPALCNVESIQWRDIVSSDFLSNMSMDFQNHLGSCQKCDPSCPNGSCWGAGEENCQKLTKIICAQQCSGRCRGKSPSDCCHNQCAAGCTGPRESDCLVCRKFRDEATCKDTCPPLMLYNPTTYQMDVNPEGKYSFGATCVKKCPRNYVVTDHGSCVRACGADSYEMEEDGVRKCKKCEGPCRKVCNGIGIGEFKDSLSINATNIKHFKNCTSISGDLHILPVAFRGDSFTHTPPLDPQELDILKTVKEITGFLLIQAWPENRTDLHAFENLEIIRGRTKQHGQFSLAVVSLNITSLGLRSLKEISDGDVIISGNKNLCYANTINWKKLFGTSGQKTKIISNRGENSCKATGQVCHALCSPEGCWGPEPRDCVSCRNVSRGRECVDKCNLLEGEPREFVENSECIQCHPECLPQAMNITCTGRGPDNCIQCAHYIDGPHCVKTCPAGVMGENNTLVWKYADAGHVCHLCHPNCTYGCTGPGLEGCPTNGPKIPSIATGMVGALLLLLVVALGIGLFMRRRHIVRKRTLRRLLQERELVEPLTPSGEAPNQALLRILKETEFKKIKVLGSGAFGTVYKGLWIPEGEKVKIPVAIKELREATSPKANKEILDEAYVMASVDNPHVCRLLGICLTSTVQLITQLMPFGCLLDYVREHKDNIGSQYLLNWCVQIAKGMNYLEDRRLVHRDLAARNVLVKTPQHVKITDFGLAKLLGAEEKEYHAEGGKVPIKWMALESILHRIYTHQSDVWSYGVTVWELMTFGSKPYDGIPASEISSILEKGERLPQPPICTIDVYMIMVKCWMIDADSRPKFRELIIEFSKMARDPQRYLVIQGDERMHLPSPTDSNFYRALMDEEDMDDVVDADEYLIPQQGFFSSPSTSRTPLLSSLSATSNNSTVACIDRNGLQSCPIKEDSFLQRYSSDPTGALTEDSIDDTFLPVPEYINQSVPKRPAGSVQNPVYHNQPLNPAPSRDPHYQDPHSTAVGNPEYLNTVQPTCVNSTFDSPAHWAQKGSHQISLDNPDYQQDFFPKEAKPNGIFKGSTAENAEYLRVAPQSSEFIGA

Structure (SMILES): O=C(NNC(=O)c1cc(-c2ccc(Br)cc2)nc2ccccc12)/C(=C/c1ccco1)NC(=O)c1ccccc1 [Compound 5, (Z)-N-(3-(2-(2-(4-Bromophenyl)quinoline-4-carbonyl)hydrazinyl)-1-(furan-2-yl)-3-oxoprop-1-en-2-yl)benzamide]
- IC50 (MCF-7 cell line; Homo sapiens, MCF7, 24 h): 6.6 ± 0.21 µM
- fold more potent antiproliferative activity than the reference STU (MCF-7 cell line): 1.06–7.10 fold
- melting point: 188 to 190 °C

Structure (SMILES): O=C(NNC(=O)c1cc(-c2ccc(Br)cc2)nc2ccccc12)/C(=C/c1ccc(F)cc1)NC(=O)c1ccccc1 [Compound 6a, (Z)-N-(3-(2-(2-(4-Bromophenyl)quinoline-4-carbonyl)hydrazinyl)-1-(4-fluorophenyl)-3-oxoprop-1-en-2-yl)benzamide]
- IC50 (MCF-7 cell line; Homo sapiens, MCF7, 24 h): 59.8 ± 1.93 µM
- melting point: 177 to 179 °C

Structure (SMILES): O=C(NNC(=O)c1cc(-c2ccc(Br)cc2)nc2ccccc12)/C(=C/c1ccc(Cl)cc1)NC(=O)c1ccccc1 [Compound 6b, (Z)-N-(3-(2-(2-(4-Bromophenyl)quinoline-4-carbonyl)hydrazinyl)-1-(4-chlorophenyl)-3-oxoprop-1-en-2-yl)benzamide]
- IC50 (MCF-7 cell line; Homo sapiens, MCF7, 24 h): 8.29 ± 0.27 µM
- fold more potent antiproliferative activity than the reference STU (MCF-7 cell line): 1.06–7.10 fold
- melting point: 185 to 187 °C

Structure (SMILES): O=C(NNC(=O)c1cc(-c2ccc(Br)cc2)nc2ccccc12)/C(=C/c1ccc(Br)cc1)NC(=O)c1ccccc1 [Compound 6c, (Z)-N-(1-(4-Bromophenyl)-3-(2-(2-(4-bromophenyl)quinoline-4-carbonyl)hydrazinyl)-3-oxoprop-1-en-2-yl)benzamide]
- IC50 (MCF-7 cell line; Homo sapiens, MCF7, 24 h): 19.2 ± 0.62 µM
- melting point: 191 to 193 °C

Structure (SMILES): O=C(NNC(=O)c1cc(-c2ccc(Br)cc2)nc2ccccc12)/C(=C/c1ccc([N+](=O)[O-])cc1)NC(=O)c1ccccc1 [Compound 6d, (Z)-N-(3-(2-(2-(4-Bromophenyl)quinoline-4-carbonyl)hydrazinyl)-1-(4-nitrophenyl)-3-oxoprop-1-en-2-yl)benzamide]
- IC50 (MCF-7 cell line; Homo sapiens, MCF7, 24 h): 12.4 ± 0.4 µM
- fold more potent antiproliferative activity than the reference STU (MCF-7 cell line): 1.06–7.10 fold
- melting point: 207 to 209 °C

Structure (SMILES): Cc1ccc(/C=C(\NC(=O)c2ccccc2)C(=O)NNC(=O)c2cc(-c3ccc(Br)cc3)nc3ccccc23)cc1 [Compound 6e, (Z)-N-(3-(2-(2-(4-Bromophenyl)quinoline-4-carbonyl)hydrazinyl)-3-oxo-1-p-tolylprop-1-en-2-yl)benzamide]
- IC50 (MCF-7 cell line; Homo sapiens, MCF7, 24 h): 1.87 µM
- fold more potent antiproliferative activity than the reference STU (MCF-7 cell line): 1.06–7.10 fold
- IC50 (MCF-7 cell line): 3.03 ± 0.1 µM
- melting point: 211 to 213 °C

Structure (SMILES): COc1ccc(/C=C(\NC(=O)c2ccccc2)C(=O)NNC(=O)c2cc(-c3ccc(Br)cc3)nc3ccccc23)cc1 [Compound 6f, (Z)-N-(3-(2-(2-(4-Bromophenyl)quinoline-4-carbonyl)hydrazinyl)-1-(4-methoxyphenyl)-3-oxoprop-1-en-2-yl)benzamide]
- IC50 (MCF-7 cell line; Homo sapiens, MCF7, 24 h): 1.88 µM
- fold more potent antiproliferative activity than the reference STU (MCF-7 cell line): 1.06–7.10 fold
- IC50 (MCF-7 cell line): 1.87 ± 0.06 µM
- percentage of primary (early) apoptotic cells (MCF-7 cells [1]; MCF-7, 1.87 μM (IC50), lower right quadrant, DMSO control 0.66%): 9.52%
- proportion of late apoptotic cells (MCF-7 cells [1]; MCF-7, 1.87 μM (IC50), upper right quadrant, DMSO control 0.21%): 16.65%
- fold increase of early apoptosis compared to controls (MCF-7 cells [1]; MCF-7, 1.87 μM): ~14.4 fold
- fold increase of late apoptosis compared to controls (MCF-7 cells [1]; MCF-7, 1.87 μM): ~79.3 fold
- decrease of MMP of MCF-7 cells compared to controls (percentage change value) (MCF-7 cells [2]; MCF-7, 1.87 μM (IC50 dose), vs DMSO controls): 57.93%
- MMPΨ / MCF-7 (flow cytometry reading) (MCF-7 cells [2]; MCF-7, 1.87 μM, control 58497): 24610
- IC50 (EGFR tyrosine kinase): 0.19 µM
- fold increase of percentage of cells at G1 phase compared to controls (MCF-7 cells [3]): 1.2 fold
- percentage of cells at G2/M phase (%DIP G2/M) (MCF-7 cells [3]; control 14.04%): 7.12%
- percentage of cells at S phase (%DIP S) (MCF-7 cells [3]; control 34.30%): 29.32%

Structure (SMILES): CC(=O)Oc1c(Br)cc(/C=C(\NC(=O)c2ccccc2)C(=O)NNC(=O)c2cc(-c3ccc(Br)cc3)nc3ccccc23)cc1Br [Compound 6g, (Z)-4-(2-Benzamido-3-(2-(2-(4-bromophenyl)quinoline-4-carbonyl)hydrazinyl)-3-oxoprop-1-enyl)-2,6-dibromophenyl acetate]
- IC50 (MCF-7 cell line; Homo sapiens, MCF7, 24 h): 30.4 ± 0.98 µM
- melting point: 181 to 183 °C

Structure (SMILES): COc1cc(/C=C(\NC(=O)c2ccccc2)C(=O)NNC(=O)c2cc(-c3ccc(Br)cc3)nc3ccccc23)cc(OC)c1OC [Compound 6h, (Z)-N-(3-(2-(2-(4-Bromophenyl)quinoline-4-carbonyl)hydrazinyl)-3-oxo-1-(3,4,5-trimethoxyphenyl)prop-1-en-2-yl)benzamide]
- IC50 (MCF-7 cell line; Homo sapiens, MCF7, 24 h): 15.6 ± 0.42 µM
- melting point: 169 to 171 °C
